Experimental data: US9034895B2, “Composition and methods for treating glioblastoma” (University of Washington Through its Center for …, priority 2010, dated 2015)

Columns and labels:
CB2 = molecular target: T1, CB2 (Mus musculus, UniProt P47936); assay: Radioligand competition binding, [3H]-CP55940, CB2-expressing HEK293 membranes
T1 construct: plasmids containing full coding region of mouse CB1 and CB2; expressed in transfected cells
Protocol: Stable CB1 and CB2 expressing HEK293 cell lines were generated using plasmids containing full coding region of mouse CB1 and CB2.
Fragments were amplified from total RNA of cell lines by reverse transcriptase-polymerase chain reaction (RT-PCR). Sequence was confirmed and the fragment was cloned into the EcoRI site of the pIRES2-eGFP-express vector. Cells were grown to approximately 80% confluence in 10 cm cell culture dishes, transfected with the cDNA pIRES-eGFP-vector containing the murine CB1 or CB2 receptor using LipofectAMINE™ 2000 reagent in the serum-free media Opti-MEM 1 according to the manufacturer's description. Cells were subject to FACS sorting 48 h after transfection and single cell sorted based on dsRed expression into 96-well plates. Of the dsRed expressing positive clones, 3 were validated for CB1 and CB2 protein expression by radioligand binding analysis (methods discussed below).
Cells were grown to 90% confluence, rinsed twice with 1×PBS and stored at −80° C. until further use. To prepare crude cellular membrane fractions, dishes were removed from −80° C. and thawed at room temperature for 5 min. Once thawed, cells were lysed with ice-cold homogenization buffer (50 mM Tris, 1 mM EDTA, 3 mM MgCl2) and gently scraped from the dish. Total cell lysates from 3-5 dishes were collected on ice in 3 ml of ice-cold homogenization buffer. Cells were homogenized at 6,500 rpm (PRO Scientific, Oxford, Conn.) twice for 10 sec and centrifuged at 11,500 rpm for 20 min at 4° C. Supernatants were discarded and cell pellets were resuspended in homogenization buffer and triturated 10 times in ice-cold homogenization buffer. Crude cellular membrane homogenates were stored at −80° C. until further use. On the day of experiments, frozen homogenates were thawed at room temperature, gently triturated 10 times and subsequently dounce homogenized in a 7 ml glass tissue grinder (Wheaton Science Products, Millville, N.J.) by 5 strokes while on ice. […]

[1] = test system: mouse neurons in primary culture; assay: Toxic profile in neurons in primary culture; assay type: cell-based

T1 sequence (P47936 whole entry): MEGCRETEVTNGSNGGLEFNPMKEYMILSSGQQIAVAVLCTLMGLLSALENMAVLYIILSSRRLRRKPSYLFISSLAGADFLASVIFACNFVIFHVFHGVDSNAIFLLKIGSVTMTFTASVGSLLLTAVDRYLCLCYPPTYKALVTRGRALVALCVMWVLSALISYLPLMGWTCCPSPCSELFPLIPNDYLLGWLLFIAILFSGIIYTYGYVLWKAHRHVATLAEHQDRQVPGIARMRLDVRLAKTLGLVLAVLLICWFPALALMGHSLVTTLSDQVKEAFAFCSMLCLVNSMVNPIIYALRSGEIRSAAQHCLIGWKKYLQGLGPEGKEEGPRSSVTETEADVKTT

## CCn1c(C)c(C(=O)c2ccc(C)c3ccccc23)c2ccccc21 [JWH-451, 1-Ethyl-2-methyl-3-(4-methyl-1-napthoyl)indole]
CB2; FIG. 2
  competition for [3H]-CP55940 binding at CB2: does not
CB2; relative to WIN55212-2
  lower affinity at CB2 receptors than WIN55212-2: 100 fold
[1]
  viability of mouse neurons in primary culture: did not affect the viability
